Ends that are not written are not given here.
Legend:
Format in all cases: cell-based, mouse
[1] = system: Meth A cell line; experiment: Cr-release assay of peptide-induced killer T cells on Meth A cells; conditions: spontaneously expressing SPARC, 4 hours co-culture
Method: (§1) Bone marrow-derived dendritic cells (BM-DC) were induced from bone marrow cells derived from BALBc bone marrow by using GM-CSF as described previously by us (Nakatsura, T et al., Clin Cancer Res 10, 8630-8640, 2004). Thus the obtained BM-DC were cultured with a mixture of the 4 types of peptides selected as described above at a concentration of 10 μM for 2 hours, and the peptide-pulsed BM-DC (5×10^5 cells) were then intraperitoneally administered to each mouse. After an interval of 1 week, the same peptide-pulsed BM-DC were administered to the mouse twice, so that the mouse was strongly immunized. Thereafter, the spleen cells of the mouse were recovered and induction of killer T cells was evaluated. In order to strictly analyze induction of killer T cells derived from CD8^+ T cells, after collection of the spleen, CD4^+ T cells were eliminated from the collected spleen cells, using MACS beads, and the remaining cells were then used for analysis.
(§2) The following protocols were used for generation and characterization of SPARC-specific killer T cells (The day of recovering the spleen cells from the immunized mouse was defined as Day 0.) • Day-21 (1) GM-CSF was added to the bone marrow cells of a BALB/c mouse, so as to start induction of bone marrow-derived dendritic cells (hereinafter referred to as BM-DC). • Day-14 (2) A mixture of the 4 types of SPARC peptides was added to the induced BM-DC, and 2 hours later, 5×10^5 cells were intraperitoneally administered to each mouse. • Steps (1) and (2) were repeated twice every other week. • Day 0 The spleen cells of the immunized BALB/c mouse were recovered. The cells were co-cultured with BM-DC prepulsed with each SPARC peptide for 2 hours. […]
(§3) The cytotoxic activity of the induced SPARC-specific killer T cells on tumor cells was analyzed as follows. […] Thereafter, a culture supernatant was recovered, and the amount of radioactive Cr released from dead cells was quantified, so that cytotoxic activity was detected.

[2] = system: T2K^d cells loaded with SPARC K^d peptide; experiment: Cr-release assay of peptide-induced killer T cells on peptide-loaded T2K^d cells; conditions: T2K^d cells loaded with the SPARC K^d peptide; 4 hours co-culture; CTL from BM-DC-immunized BALB/c mice
Method: as §1, §2, §3

[3] = system: BALB/3T3 cell line; experiment: Cr-release assay of peptide-induced killer T cells on BALB/3T3 cells; conditions: BALB/3T3, spontaneously expressing SPARC; 4 hours co-culture
Method: as §1, §2, §3

Measured: Cytotoxicity of induced killer T cells (Cr release)

EFPLRMRDWL [SPARC- K^d-3, EFPLRMRDWL]
cytotoxicity was observed: all assays above

MYIFPVHWQF [SPARC- K^d-4, MYIFPVHWQF]
cytotoxicity was observed: all assays above

DYIGPCKYI [SPARC- K^d-1, DYIGPCKYI]
cytotoxicity was observed: all assays above

Source: patent US8470968B2, “SPARC-derived tumor rejection antigenic peptides and medicaments comprising the same” (Onco Therapy Science, Inc., priority 2006, dated 2013)
